For experiment [1], the target named is T1, pyk-2 protein kinase (Homo sapiens, UniProt Q14289).
T1 construct: made in house; host or cells: Schizosaccharomyces pombe strain SP200, pRSP expression plasmids
Put plainly: Assay measuring PYK-2 protein kinase activity (phosphorylation of a biotinylated peptide). It counts as biochemical. As to conditions: pyk-2 from transformed yeast lysate, 5 μM ATP; compound at 100 μM. Here is the method: This assay is used to determine pyk-2 protein kinase activity measuring phosphorylation of a biotinylated peptide as the readout.
a. Yeast transformed with pyk-2.
b. Cell lysates: Yeast cells expressing pyk-2 are pelleted, washed once with water, re-pelleted and stored at −80° C. until use.
(§1) c. N-terminus biotinylated […] is prepared by standard procedures well known to those skilled in the art.
(§2) h. […] S. Pombe strain SP200 (h-s leul.32 ura4 ade21O) was grown as described and transformations were pRSP expression plasmids were done by the lithium acetate method (Superti-Furga, supra). Cells were grown in the presence of 1 μM thiamine to repress expression from the nmtl promoter or in the absence of thiamine to induce expression.
a. Preparation of pyk-2 coated ELISA plate.
1. Coat ELISA plate with 0.5 μg/well anti-pyk-2 mab in 100 μL of pH 9.6 sodium carbonate buffer at 4° C. overnight.
(§3) 2. Wash wells once with PBS.
(§4) 3. Block plate with 0.15 mL 5% milk in PBS for 30 min. at room temperature.
(§5) 4. Wash plate 5× with PBS.
5. Add 10 μg/well of pyk-2 transformed yeast lysates diluted in Lysis Buffer (0.1 mL total volume per well). (Amount of lysate may vary between hatches.) Shake plate for 20 minutes at room temperature.
(§6) b. Preparation of phosphotyrosine antibody-coated ELISA plate.
(§7) 1. 4G10 plate: coat 0.5 μg/well 4G10 in 100 μL PBS overnight at 4° C. and block with 150 μL of 5% milk in PBS for 30 minutes at room temperature.
(§8) c. Kinase assay procedure.
(§9) 1. Remove unbound proteins from steps 1-7, above, and wash plates 5× with PBS.
2. Add 0.08 mL Kinase Reaction Mixture per well (containing […] of 10×Kinase Buffer and 10 pM (final concentration) biotin-[…] per well diluted in water.
(§10) 3. Add 10 μL of compound diluted in water containing 10% DMSO and pre-incubate for 15 minutes at room temperature.
(§11) 4. Start kinase reaction by adding 10 μL/well of 0.05 mM ATP in water (5 μM ATP final).
(§12) 5. Shake ELISA plate for 15 min. at room temperature.
(§13) 6. Stop kinase reaction by adding 10 μL of 0.5 M EDTA per well.
(§14) 7. Transfer 90 μL supernatant to a blocked 4G10 coated ELISA plate from section B, above.
(§15) 8. Incubate for 30 min. while shaking at room temperature.
(§16) 9. Wash plate 5× with TBST.
(§17) 10. Incubate with Vectastain ELITE ABC reagent (100 μL/well) for 30 min. at room temperature.
(§18) 11. Wash the wells 5× with TBST.
(§19) 12. Develop with Turbo TMB.
(§20) The IC50 values were measured for several of the compounds of the invention.

The target in experiment [2] is T2, FLK-1 receptor (Mus musculus, UniProt P35918).
T2 construct: expressed in transfected cells; host or cells: NIH3T3 C7#3 cells
T2 sequence (P35918 20-1345): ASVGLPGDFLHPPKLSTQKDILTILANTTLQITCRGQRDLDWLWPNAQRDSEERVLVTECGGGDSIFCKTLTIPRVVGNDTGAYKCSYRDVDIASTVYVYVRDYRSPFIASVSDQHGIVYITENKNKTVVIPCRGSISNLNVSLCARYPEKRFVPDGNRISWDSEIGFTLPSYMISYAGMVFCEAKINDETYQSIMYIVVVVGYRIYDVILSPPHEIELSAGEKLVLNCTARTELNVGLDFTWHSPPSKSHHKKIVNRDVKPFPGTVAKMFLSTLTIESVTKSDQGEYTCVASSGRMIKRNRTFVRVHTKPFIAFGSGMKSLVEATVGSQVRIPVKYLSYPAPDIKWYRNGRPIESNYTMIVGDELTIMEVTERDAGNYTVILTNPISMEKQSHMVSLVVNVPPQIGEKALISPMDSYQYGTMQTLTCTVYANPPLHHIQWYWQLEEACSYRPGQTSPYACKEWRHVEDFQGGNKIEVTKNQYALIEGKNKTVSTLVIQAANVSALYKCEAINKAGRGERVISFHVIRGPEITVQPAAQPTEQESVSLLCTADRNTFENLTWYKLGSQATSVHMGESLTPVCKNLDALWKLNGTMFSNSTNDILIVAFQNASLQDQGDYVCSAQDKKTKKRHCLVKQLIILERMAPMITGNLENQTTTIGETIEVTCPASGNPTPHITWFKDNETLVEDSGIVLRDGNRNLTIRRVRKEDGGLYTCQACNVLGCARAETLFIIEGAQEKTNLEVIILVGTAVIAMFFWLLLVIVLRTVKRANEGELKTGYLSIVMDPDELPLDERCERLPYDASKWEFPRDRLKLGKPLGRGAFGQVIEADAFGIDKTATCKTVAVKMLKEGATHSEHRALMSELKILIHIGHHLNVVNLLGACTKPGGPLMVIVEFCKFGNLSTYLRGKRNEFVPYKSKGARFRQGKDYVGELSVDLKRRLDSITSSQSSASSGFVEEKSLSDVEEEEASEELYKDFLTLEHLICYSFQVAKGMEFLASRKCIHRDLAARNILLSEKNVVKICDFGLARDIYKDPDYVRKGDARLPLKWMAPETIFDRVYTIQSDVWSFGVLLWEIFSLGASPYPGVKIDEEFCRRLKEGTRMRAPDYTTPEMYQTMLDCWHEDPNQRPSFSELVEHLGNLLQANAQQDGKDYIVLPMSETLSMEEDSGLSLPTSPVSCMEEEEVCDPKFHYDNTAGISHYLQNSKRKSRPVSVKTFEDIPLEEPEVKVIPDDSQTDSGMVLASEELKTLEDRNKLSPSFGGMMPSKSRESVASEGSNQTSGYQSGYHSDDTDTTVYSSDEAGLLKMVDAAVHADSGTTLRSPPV
The experiment in a line: ELISA assay measuring the kinase activity of the FLK-1 receptor in cells engineered to express FLK-1. Type of experiment: cell-based. The following applies: FLK-1 expressing NIH3T3 C7#3 cells, VEGF stimulated; for inhibition at 100 µM: compound at 100 μM. Here is the method: An ELISA assay was conducted to measure the kinase activity of the FLK-1 receptor and more specifically, the inhibition or activation of TK activity on the FLK-1 receptor. Specifically, the following assay was conducted to measure kinase activity of the FLK-1 receptor in cells genetically engineered to express FLK-1.
(11) NIH3T3 C7#3 Cells (FLK-1 expressing cells);
The following protocol was used for conducting the assay:
1. Coat Corning 96-well elisa plates with 1.0 μg per well Cappel Anti-rabbit IgG antibody in 0.1 M Na2CO3 pH 9.6. Bring final volume to 150 μL per well. Coat plates overnight at 4° C. Plates can be kept up to two weeks when stored at 4° C.
2. Grow cells in Growth media (DMEM, supplemental with 2.0 mM L-Glutamine, 10% FBS) in suitable culture dishes until confluent at 37° C., 5% CO2.
3. Harvest cells by trypsinization and seed in Corning 25850 polystyrene 96-well roundbottom cell plates, 25.000 cells/well in 200 μL of growth media.
4. Grow cells at least one day at 37° C., 5% CO2.
5. Wash cells with D-PBS 1×.
6. Add 200 μL/well of starvation media (DMEM, 2.0 mM 1-Glutamine, 0.1% FBS). Incubate overnight at 37° C., 5% CO2.
7. Dilute Compounds 1:20 in polypropylene 96 well plates using starvation media. Dilute dimethylsulfoxide 1:20 for use in control wells.
8. Remove starvation media from 96 well cell culture plates and add 162 μL of fresh starvation media to each well.
9. Add 18 μL of 1:20 diluted Compound dilution (from step 7) to each well plus the 1:20 dimethylsulfoxide dilution to the control wells (+/−VEGF), for a final dilution of 1:200 after cell stimulation. Final dimethylsulfoxide is 0.5%. Incubate the plate at 37° C., 5% CO2 for two hours.
10. Remove unbound antibody from ELISA plates by inverting plate to remove liquid. Wash 3 times with TBSW+0.5% ethanolamine, pH 7.0. Pat the plate on a paper towel to remove excess liquid and bubbles.
11. Block plates with TBSW+0.5% Ethanolamine, pH 7.0, 150 μL per well. Incubate plate thirty minutes while shaking on a microliter plate shaker.
12. Wash plate 3 times as described in step 10.
13. […] Bring final volume to 150 μL/well with TBSW+0.5% ethanolamine pH 7.0. Incubate plate for thirty minutes while shaking.
14. Add 180 μL starvation medium to the cells and stimulate cells with 20 μL/well 10.0 mM sodium ortho vanadate and 500 ng/mL VEGF (resulting in a final concentration of 1.0 mM sodium ortho vanadate and 50 ng/mL VEGF per well) for eight minutes at 37° C., 5% CO2. Negative control wells receive only starvation medium.
15. After eight minutes, media should be removed from the cells and washed one time with 200 μL/well PBS.
16. Lyse cells in 150 μL/well HNTG while shaking at room temperature for five minutes. HNTG formulation includes sodium ortho vanadate, sodium pyro phosphate and EDTA.
17. Wash ELISA plate three times as described in step 10.
18. Transfer cell lysates from the cell plate to ELISA plate and incubate while shaking for two hours. To transfer cell lysate pipette up and down while scrapping the wells.
19. Wash plate three times as described in step 10.
20. Incubate ELISA plate with 0.02 μg/well UB40 in TBSW+05% ethanolamine. Bring final volume to 150 μL/well. Incubate while shaking for 30 minutes.
21. Wash plate three times as described in step 10.
22. Incubate ELISA plate with 1:10,000 diluted EIA grade goat anti-mouse IgG conjugated horseradish peroxidase in TBSW+0.5% ethanolamine, pH 7.0. Bring final volume to 150 μL/well. Incubate while shaking for thirty minutes.
23. Wash plate as described in step 10.
24. Add 100 μL of ABTS/H2O2 solution to well. Incubate ten minutes while shaking.
25. Add 100 μL of 0.2 M HCl for 0.1 M HCl final to stop the color development reaction. Shake 1 minute at room temperature. Remove bubbles with slow stream of air and read the ELISA plate in an ELISA plate reader at 410 nm.
as §20

The target in experiment [3] is T3, src protein kinase (Gallus gallus, UniProt P00523).
T3 construct: made in house; host or cells: Schizosaccharomyces pombe strain SP200, pRSP expression plasmids
Put plainly: Assay measuring SRC protein kinase activity (phosphorylation of a biotinylated peptide). It counts as biochemical. The following applies: src from transformed yeast lysate, 5 μM ATP; compound at 100 μM. The procedure: This assay is used to determine src protein kinase activity measuring phosphorylation of a biotinylated peptide as the readout.
a. Yeast transformed with src.
b. Cell lysates: Yeast cells expressing src are pelleted, washed once with water, re-pelleted and stored at −80° C. until use.
as §1, §2
a. Preparation of src coated ELISA plate.
1. Coat ELISA plate with 0.5 μg/well anti-src mab in 100 μL of pH 9.6 sodium carbonate buffer at 4° C. overnight.
as §3, §4, §5
5. Add 10 μg/well of src transformed yeast lysates diluted in Lysis Buffer (0.1 mL total volume per well). (Amount of lysate may vary between hatches.) Shake plate for 20 minutes at room temperature.
as §6, §7, §8, §9
2. Add 0.08 mL Kinase Reaction Mixture per well (containing 10 μL of 10×Kinase Buffer and 10 μM (final concentration) biotin-[…] per well diluted in water.
as §10, §11, §12, §13, §14, §15, §16, §17, §18, §19, §20

Where only a bound is given, the exact number is not on record here.

Here are results for five compounds from US6680335B2, “Methods of modulating protein tyrosine kinase function with substituted indolinone compounds” (Sugen, Inc., priority 1998, dated 2004).

T1 sequence (Q14289 whole entry): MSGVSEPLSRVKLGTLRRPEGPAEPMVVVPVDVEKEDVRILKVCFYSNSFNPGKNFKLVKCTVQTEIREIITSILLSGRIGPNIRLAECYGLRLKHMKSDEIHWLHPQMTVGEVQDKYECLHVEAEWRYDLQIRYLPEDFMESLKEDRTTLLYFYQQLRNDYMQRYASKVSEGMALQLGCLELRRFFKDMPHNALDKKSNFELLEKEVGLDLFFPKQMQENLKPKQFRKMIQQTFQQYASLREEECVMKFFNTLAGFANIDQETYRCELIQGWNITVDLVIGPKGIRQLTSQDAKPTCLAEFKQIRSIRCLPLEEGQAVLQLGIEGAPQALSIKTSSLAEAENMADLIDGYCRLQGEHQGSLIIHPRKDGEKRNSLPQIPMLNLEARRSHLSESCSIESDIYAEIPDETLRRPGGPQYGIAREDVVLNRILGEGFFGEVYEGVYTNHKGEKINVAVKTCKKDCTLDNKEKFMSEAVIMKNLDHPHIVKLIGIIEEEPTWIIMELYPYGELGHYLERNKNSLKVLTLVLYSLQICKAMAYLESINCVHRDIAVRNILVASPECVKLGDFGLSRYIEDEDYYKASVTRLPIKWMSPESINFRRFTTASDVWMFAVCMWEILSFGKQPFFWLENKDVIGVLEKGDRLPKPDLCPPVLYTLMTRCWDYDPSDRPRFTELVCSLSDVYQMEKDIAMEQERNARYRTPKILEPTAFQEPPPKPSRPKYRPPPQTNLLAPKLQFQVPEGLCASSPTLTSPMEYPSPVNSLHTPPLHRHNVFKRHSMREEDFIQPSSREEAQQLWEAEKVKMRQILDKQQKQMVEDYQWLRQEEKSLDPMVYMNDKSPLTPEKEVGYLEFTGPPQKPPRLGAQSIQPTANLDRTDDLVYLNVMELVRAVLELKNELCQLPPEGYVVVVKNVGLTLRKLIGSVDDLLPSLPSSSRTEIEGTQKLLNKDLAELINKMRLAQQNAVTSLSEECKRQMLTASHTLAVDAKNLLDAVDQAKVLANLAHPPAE

By inhibition is commonly meant the drop in the measured response relative to a control, in per cent. In the case of `O=C1Nc2ccc(Br)cc2C1=Cc1cc2ccccc2[nH]1` [IN-014, 5-Bromo-3-(1H-indol-2-ylmethylene)-1,3-dihydro-indol-2-one], the values for the inhibition at 100 µM in experiment [1], in experiment [2] and in experiment [3] were -14%, 10% and -2.4%, respectively.

As for `CNS(=O)(=O)c1ccc2c(c1)C(=Cc1[nH]c3ccccc3c1C)C(=O)N2` [IN-003, 3-(3-Methyl-1H-indol-2-ylmethylene)-2-oxo-2,3-dihydro-1H-indole-5-sulfonic acid methylamide], the inhibition at 100 µM was 67.5% in experiment [1] and 11% in experiment [2].

On to `Cc1cccc2c1C(=Cc1cc3ccccc3[nH]1)C(=O)N2` [IN-015, 3-(1H-indol-2-ylmethylene)-4-methyl-1,3-dihydro-indol-2-one], for which the inhibition at 100 µM in experiment [1] stood at 3.9%; in experiment [2], 26%; in experiment [3], 16%.

One may read the IC50 as the concentration needed to halve the response being measured. `O=C1Nc2ccc(/N=C/c3cc4ccccc4[nH]3)cc2/C1=C/c1cc2ccccc2[nH]1` [IN-020, 3-(1H-indol-2-ylmethylene)-5-[(1H-indol-2-ylmethylene)-amino]-1,3-dihydro-indol-2-one]: the values for the inhibition at 100 µM in experiment [1] and in experiment [3] were 64.3% and 7.62%, respectively. The concentration for half-maximal inhibition (IC50) in experiment [2] (cells without % or + sign) was more than 100 µM.

`Cc1c(C=C2C(=O)Nc3ccc(S(=O)(=O)N(C)C)cc32)[nH]c2ccccc12` (mixture of isomers) [IN-004, 3-(3-Methyl-1H-indol-2-ylmethylene)-2-oxo-2,3-dihydro-1H-indole-5-sulfonic acid dimethylamide]: the inhibition at 100 µM is 44.4% in experiment [1], 7% in experiment [2] and -4.6% in experiment [3].
